1 substance from PMC9510126, “Hydrophobicity is a key determinant in the activity of arginine-rich cell penetrating peptides” (Scientific Reports, 2022) can be followed below.

“Also recorded” adds a separate entry of the source. Ends that are not written are not given here.

Series [1] can be described thus: C18 reverse phase HPLC hydrophobicity of (X)TAT and d(X)TAT peptides. It counts as physicochemical. Conditions: chromatographic, C18, 0–40% B over 20 min, 0.1% TFA (pH 2); ranking within the d(X)TAT series. The method, then: In order to assess the hydrophobicity contributed by each X group, the peptides were first analyzed by reverse phase HPLC using a C18 column, using gradients of buffer A (water/TFA 99.9:0.1) and buffer B (acetonitrile/water/TFA 89.9:10:0.1 v:v:v) (gradient of 0–40% B over 20 min). […] All d(X)TAT peptides eluted over a range of 10–35% acetonitrile. […] One caveat of this approach is that the buffer system used for peptide analysis is pH 2 (due to the presence of TFA, required to protonate residue side chains). However, pH 2 is not representative of the pH that CPPs may be exposed to when in contact with cells, either pH 7.2 outside the plasma membrane, or pH between 6.5 and 4.5 while inside acidic endosomes. In order to establish the relative hydrophobicities of d(X)TAT peptides at these pHs, we sought to use other techniques, including thin layer chromatography using C18, aluminum oxide or silica stationary phases. Unfortunately, the arginine-rich peptides could not be separated on these systems. To solve this problem, each individual X group was synthesized, using acetylated and amidated N and C-terminal positions to mimic the peptide backbone found in the d(X)TAT constructs (Fig. 1A, Figure S11). Each Ac-X-NH2 group was analyzed by HPLC and by RP18 TLC, using 40% acetonitrile and 60% PBS as mobile phase. The HPLC elutions of Ac-X-NH2 correlated with the HPLC elutions of their respective d(X)TAT counterparts (Fig. 1C). Similarly, the relative hydrophobicities of Ac-X-NH2 determined by TLC (measured as 1-Rf) at pH 4 or 8 were in good agreement with the results obtained by HPLC (Fig. 1D). […] In the case of DEAC, the protonation state of the fluorophore has, to our knowledge, not been characterized.
All rpHPLC retention times were analyzed using an Agilent HP 1200 series instrument on an analytical Phenomenex Luna Omega Polar C18 column (5 μm, 4.6 mm × 250 mm). The flow rate was 2 mL/min, and detection was at 214 nm. A binary solvent system was used comprising 99.9% H2O/0.1% TFA (solvent A) and 90% Acetonitrile/9.9% H2O/0.1% TFA (solvent B). […]

The test system of series [2] is MDA-MB-231 cells. The series is described as follows: Staining of endosomes with LysoTracker (puncta per cell). It counts as cell-based, human. The note with it: MDA-MB-231, 1 h with peptide (X = K(Ac), WW, FFLIP at 10, 1.5, 1.5 μM), LysoTracker Green DND-26 500 nM 5 min, biological triplicates. On the procedure: Given that hydrophobicity of the d(X)TAT peptides appears to contribute to their membrane permeation activities, we next sought to establish whether this relationship could be recapitulated with membrane models, i.e. lipid bilayers. To establish which membrane system to test, we first aimed to test whether d(X)TAT peptides generally recapitulate the mechanism of cell entry previously determined with dfTAT. For this purpose, the delivery of TMR-k5 was performed in cells transfected with dominant-negative (DN) rab7(T22N), a protein that disrupts trafficking from early endosomes to late endosomes[29],[30]. For these experiments, d(WW)TAT and d(FFLIP)TAT were chosen as two “high activity/hydrophobicity” d(X)TAT representatives. […] In this case, approximately 5% of cells remained positive for TMR-k5 nuclear staining. […] To further probe the cell penetration mechanism, the number of endosomal organelles stained by Lysotracker in cells before and after delivery was quantified. The rationale behind this assay is that lysotracker accumulates in acidified organelles, typically late endosomes and lysosomes, that endosomal membrane leakage causes an increase of endosomal pH (presumably via leakage of luminal H^+ into the cytosol), and that, consequently, endosomes rendered potentially leaky by d(X)TAT peptides will not be stained by lysotracker.
For the quantification of acidic vesicles, cells were treated with LysoTracker Green DND-26 (500 nM) for 5 min. Alternatively, cells were pretreated with L-Leu-L-Leu methyl ester (LLOME; Sigma-Aldrich) incubated at 1 mM for 10 min, or bafilomycin (Sigma-Aldrich) at 1 µM for 4 h, and then stained with LysoTracker. Likewise, cells were pretreated with d(X)TAT peptides (X = K(Ac), WW, or FFLIP at 10, 1.5, and 1.5 μM) for 1 h. Cells were then washed an stained with LysoTracker immediately or after 12 h incubation in DMEM. For all conditions, fluorescence microscopy images were acquired using the 100× objective on an Olympus IX-81 microscope. ImageJ was used to calculate the number of LysoTracker-stained puncta per cell, as well as the area of each individual puncta. This analysis was performed for 50 cells imaged for each condition and reproduced in biological triplicates.

Series [3] can be described thus: Zeta potential of BMP LUVs in contact with peptides. The note with it: 0.33 µM peptide, 50 µM lipid (P:L 1:150), PBS pH 5.5, 25 °C, triplicate. It counts as binding. On the procedure:
The interaction partners of CPPs that may mediate direct plasma membrane translocation remain undefined. It is therefore unclear which liposome system can be used to probe this activity. […] This permeabilization is consistent with a leaky fusion process, where peptide-induced contact between liposomes is required for leakage. In order to assess whether similar processes are involved with peptides of the d(X)TAT series, LUVs were loaded with calcein to probe leakage. LUVs were prepared with either 65:15:20 PC:PE:Chol or 77:19:4 BMP:PC:PE, lipid compositions consistent with plasma membrane /early endosomes (PM/EE) bilayers or late endosome (LE) bilayers, respectively[36],[37]. Peptides were added to liposomes suspensions at various peptide-to-lipid ratios, and the release of calcein was monitored by gel filtration. […] The mixtures were then added to a folded capillary zeta cell for measurement on a Zetasizer Nano-zs (Malvern). Instrument was set to hold at 25 °C and automatically determine the optimal voltage and attenuator positions for each measurement. Each sample was set to be measured three times by the instrument and the average of these measurements was used to determine the zeta potential for a single sample. This experiment was performed in triplicate for each condition.

On to “d(K(Ac))TAT: disulfide dimer of CXRKKRRQRRRG with X = lysine conjugated to an acetyl group (CK(Ac)RKKRRQRRRG-NH2; also: disulfide dimer)”, for which the “relative hydrophobicity of X group by C18 HPLC” value in series [1] is recorded as “least hydrophobic; also recorded: lowest peptide on the hydrophobicity scale”. Besides, the “lysotracker stained endosomes (puncta per cell) immediately after incubation” value in series [2] was “did not affect lysotracker staining”. Further, the “effect on apparent zeta potential of BMP-rich LUVs” value in series [3] was “largest effect”.
